The values that follow come from patent US8143226B2, “Tyrosine kinase receptor antagonists and methods of treatment for breast cancer” (The Regents of the University of California, priority 2005, dated 2012).

The term inhibition denotes how much of the control response was suppressed. High values mean strong suppression, low ones little suppression.

One assay deals with T1, rodent HER2/neu receptor (Rattus norvegicus, UniProt P06494).
T1 construct: made in house; host or cells: MCNeuA mouse mammary carcinoma cells (MMTV/neu transgenic), partially purified by wheat germ agglutinin chromatography
T1 sequence (P06494 23-1257): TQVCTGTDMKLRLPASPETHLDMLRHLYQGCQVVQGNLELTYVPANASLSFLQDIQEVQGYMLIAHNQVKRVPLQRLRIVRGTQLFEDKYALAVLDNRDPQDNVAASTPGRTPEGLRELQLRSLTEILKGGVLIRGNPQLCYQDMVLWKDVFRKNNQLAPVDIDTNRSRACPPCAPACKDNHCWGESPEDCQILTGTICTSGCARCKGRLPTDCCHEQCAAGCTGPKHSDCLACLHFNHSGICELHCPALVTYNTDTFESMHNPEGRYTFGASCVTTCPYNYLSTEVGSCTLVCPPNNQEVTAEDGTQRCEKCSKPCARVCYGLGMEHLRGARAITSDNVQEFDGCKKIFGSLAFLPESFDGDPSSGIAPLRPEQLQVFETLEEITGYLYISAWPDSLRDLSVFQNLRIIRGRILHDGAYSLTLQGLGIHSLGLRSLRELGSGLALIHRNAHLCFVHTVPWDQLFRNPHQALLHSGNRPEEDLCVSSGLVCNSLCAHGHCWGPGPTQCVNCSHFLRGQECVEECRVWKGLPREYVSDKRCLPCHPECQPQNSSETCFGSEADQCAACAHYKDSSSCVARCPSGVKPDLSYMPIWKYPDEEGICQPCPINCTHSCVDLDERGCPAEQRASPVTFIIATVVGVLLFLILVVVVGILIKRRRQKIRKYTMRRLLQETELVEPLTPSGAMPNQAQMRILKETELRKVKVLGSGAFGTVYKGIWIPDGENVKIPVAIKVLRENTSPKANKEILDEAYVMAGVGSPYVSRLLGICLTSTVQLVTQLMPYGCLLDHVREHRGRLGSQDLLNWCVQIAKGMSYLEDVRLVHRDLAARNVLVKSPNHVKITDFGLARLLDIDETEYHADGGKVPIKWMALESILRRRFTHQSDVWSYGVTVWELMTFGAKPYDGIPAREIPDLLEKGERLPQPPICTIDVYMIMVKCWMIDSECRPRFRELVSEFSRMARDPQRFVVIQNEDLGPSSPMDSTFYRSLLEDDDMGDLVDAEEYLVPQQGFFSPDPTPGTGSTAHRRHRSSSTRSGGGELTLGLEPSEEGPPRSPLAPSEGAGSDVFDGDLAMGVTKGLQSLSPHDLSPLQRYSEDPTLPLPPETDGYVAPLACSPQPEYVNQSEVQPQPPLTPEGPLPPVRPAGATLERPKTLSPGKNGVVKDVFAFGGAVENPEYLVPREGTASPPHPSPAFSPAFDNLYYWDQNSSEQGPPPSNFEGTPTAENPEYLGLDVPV
Nature of the assay: Autophosphorylation of isolated HER2/neu (western blot). The assay is classed as biochemical. The settings on record: preincubation 20 minutes prior to 10 μM ATP. The method, then: IGF-1 and HER2/neu receptors were partially purified by WGA chromatography of cells overexpressing the protein of interest. To isolate IGF-1R, CHO cells transfected with and overexpressing the human IGF-1R (CHOIGF-1R) were plated in T-150 flasks and grown in DMEM supplemented with 10% fetal calf serum (FCS) until 80% confluent. Cells were harvested in the basal state and solubilized in 50 mM HEPES, 10% glycerol, 1% Triton X-100, 150 mM NaCl, 5 μM EGTA, 0.24 mg/ml aminoethyl-benzensulfonyl fluoride (AEBSF), 10 μg/ml aprotinin, 25 mM benzamidine, 10 μg soybean trypsin inhibitor, and 5 μg/ml leuptin for one hour at 4° C. Samples were centrifuged for 60 minutes at 100,000 g and solubilized extract collected. Rodent HER2/neu receptors were collected from MCNeuA cells crown under identical conditions and processed similarly. […] WGA fractions containing RTK of interest were determined by SDS page and a western blot that employed antibodies against either the IGF-1R or HER2/neu as appropriate.
Autophosphorylation of HER2/neu in WGA preparations enriched in this RTK were determined in the absence of ligand. […] Following transfer to nitrocellulose membrane, receptor autophosphorylation was determined by a western blot that employed a phosphospecific antibody against the pNeu (Tyr1248) diluted 1:1000 in Superblock. […] Values were determined by scanning densitometry.
For orientation: In western blotting, separated proteins are transferred to a membrane and probed.

The target of another assay is T2, HER2 (Homo sapiens, UniProt P04626).
T2 construct: MCF-7 cells stably transfected with the full length HER2 cDNA (MCF-7/HER2-18); expressed in transfected cells; host or cells: MCF-7/HER2-18 (from Dr. Christopher Benz)
T2 sequence (P04626 23-1255): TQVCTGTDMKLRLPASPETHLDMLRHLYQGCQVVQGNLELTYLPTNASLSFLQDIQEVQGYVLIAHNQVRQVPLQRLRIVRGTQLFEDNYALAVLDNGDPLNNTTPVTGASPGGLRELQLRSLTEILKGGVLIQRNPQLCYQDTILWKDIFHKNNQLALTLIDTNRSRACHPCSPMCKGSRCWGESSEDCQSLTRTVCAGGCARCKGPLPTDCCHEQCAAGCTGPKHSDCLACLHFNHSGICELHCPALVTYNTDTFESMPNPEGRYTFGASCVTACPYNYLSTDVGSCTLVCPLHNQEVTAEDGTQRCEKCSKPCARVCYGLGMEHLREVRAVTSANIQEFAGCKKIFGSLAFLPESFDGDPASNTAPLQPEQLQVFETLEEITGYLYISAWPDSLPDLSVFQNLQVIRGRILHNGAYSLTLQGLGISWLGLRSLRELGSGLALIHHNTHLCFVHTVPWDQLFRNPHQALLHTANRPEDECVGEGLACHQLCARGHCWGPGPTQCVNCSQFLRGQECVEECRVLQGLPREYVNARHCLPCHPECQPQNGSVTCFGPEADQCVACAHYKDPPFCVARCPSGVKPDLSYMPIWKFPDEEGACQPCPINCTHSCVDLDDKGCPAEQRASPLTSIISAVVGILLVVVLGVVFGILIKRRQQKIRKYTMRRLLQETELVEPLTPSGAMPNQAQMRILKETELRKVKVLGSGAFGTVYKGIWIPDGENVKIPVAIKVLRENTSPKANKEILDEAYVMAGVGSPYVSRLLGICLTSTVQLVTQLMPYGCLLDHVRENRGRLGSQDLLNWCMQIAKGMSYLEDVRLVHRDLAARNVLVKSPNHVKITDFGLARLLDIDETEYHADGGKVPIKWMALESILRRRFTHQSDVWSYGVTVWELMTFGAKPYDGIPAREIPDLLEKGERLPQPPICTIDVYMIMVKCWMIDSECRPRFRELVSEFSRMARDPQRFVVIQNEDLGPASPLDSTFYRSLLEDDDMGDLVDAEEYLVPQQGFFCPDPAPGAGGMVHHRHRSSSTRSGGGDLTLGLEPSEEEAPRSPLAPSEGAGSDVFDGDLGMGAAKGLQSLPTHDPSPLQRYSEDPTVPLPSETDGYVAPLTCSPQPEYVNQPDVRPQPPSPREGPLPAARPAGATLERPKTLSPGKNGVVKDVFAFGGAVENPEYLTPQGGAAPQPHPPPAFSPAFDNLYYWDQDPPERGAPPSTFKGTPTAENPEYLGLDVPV
Nature of the assay: HER2 phosphorylation ELISA in MCF-7/HER2-18 cells. In kind it is cell-based. As to conditions: not stimulated.

The subject of another assay is MCF-7/neo cells. As to the kind of experiment: Tamoxifen and/or NDGA growth inhibition of MCF-7/neo cells (CyQuant). The settings on record: Homo sapiens, MCF7. The assay is classed as cell-based. As for the experimental part:
Cells were estrogen-starved for three days in DMEM containing 10% charcoal-[…]-stripped FCS (CDSS) prior to their plating in 96 well plates. Cells were plated in 100 μl of the same media, allowed to adhere overnight, and then were switched to DMEM+10% CDSS supplemented with 100 pM estrogen. […] The media and inhibitors were refreshed on day 3, the cultures were harvested on day 6, and a CyQuant assay was performed as described above.

For `CC(Cc1ccc(O)c(O)c1)C(C)Cc1ccc(O)c(O)c1` (centres unmarked) [NDGA, nordihydroguaiaretic acid], the “ATP-induced increase in ligand-independent HER2/neu autophosphorylation” value on rodent HER2/neu receptor is recorded as “abolished”. Moreover, on HER2, the HER2 phosphorylation result was “strongly inhibited”. Further, the IC50 at HER2 (read-out: half maximal effect on HER2 phosphorylation) was about 30 µM. In the assay with MCF-7/neo cells, this compound yielded an inhibition at 10 µM of 23% and an inhibition at 15 µM of 55%.
